Source: patent US20190374563A1, “TREATMENT OF KLEBSIELLA PNEUMONIAE INFECTIONS WITH ANTIBACTERIAL AMINOGLYCOSIDE COMPOUNDS” (Achaogen, Inc., priority 2009, published 2019)
Converted amounts (≈) assume the structure as drawn. Like-named read-outs stand apart in the source and are kept apart here.

Columns and labels:
[1] = system: E. coli ATCC 25922 (AECO001); assay: MIC assay, CLSI broth microdilution; type: cell-based; design: MIC AECO001: unit not given here; conditions: for MIC: Escherichia coli
Protocol: (§1) Minimum inhibitory concentrations (MIC) were determined by reference Clinical and Laboratory Standards Institute (CLSI) broth microdilution methods per M7-A7 [2006]. Quality control ranges utilizing E. coli ATCC 25922, P. aeruginosa ATCC 27853 and S. aureus ATCC 29213, and interpretive criteria for comparator agents were as published in CLSI M100-S17 [2007]. Briefly, serial two-fold dilutions of the test compounds were prepared at 2× concentration in Mueller Hinton Broth. The compound dilutions were mixed in 96-well assay plates in a 1:1 ratio with bacterial inoculum. The inoculum was prepared by suspension of a colony from an agar plate that was prepared the previous day. Bacteria were suspended in sterile saline and added to each assay plate to obtain a final concentration of 5×10^5 CFU/mL. The plates were incubated at 35° C. for 20 hours in ambient air.

[2] = system: P. aeruginosa ATCC 27853 (APAE001); assay: MIC assay, CLSI broth microdilution; type: cell-based; conditions: Pseudomonas aeruginosa
Protocol: as §1

[3] = ATCC25922, read-out: MIC AECO001
[4] = ATCC27853, read-out: MIC APAE001

MIC ([1]; Table 1, AECO001 is ATCC25922, read-out: MIC AECO001) [µg/mL]	MIC AECO001 ([1]; Table 3, E. coli ATCC25922)	MIC ([2]; Table 1, APAE001 is ATCC27853, read-out: MIC APAE001) [µg/mL]	SMILES	MIC [1, 3] [µg/mL]	MIC [2, 4] [µg/mL]
–	–	–	CN[C@@H]1[C@@H](O)[C@@H](O[C@@H]2[C@@H](O)[C@H](O[C@H]3OC(CNCCO)=CC[C@H]3N)[C@@H](N)C[C@H]2NC(=O)C2(O)CNC2)OC[C@]1(C)O [Example 37]	< 1	1 to 16 (≈ 1.69 to 27.1 µM)
–	–	–	CN[C@@H]1[C@@H](O)[C@@H](O[C@@H]2[C@@H](O)[C@H](O[C@H]3OC(CNCC(C)(C)N)=CC[C@H]3N)[C@@H](N)C[C@H]2NC(=O)[C@@H](O)CN)OC[C@]1(C)O [Example 55, 6′-(2-Methyl-2-amino-propyl)-1-(3-amino-2(S)-hydroxy-propionyl)-sisomicin]	1 to 16 (≈ 1.65 to 26.4 µM)	> 16
–	–	–	CN[C@@H]1[C@@H](O)[C@@H](O[C@@H]2[C@@H](O)[C@H](O[C@H]3OC(CN)=CC[C@H]3NCC(N)CO)[C@@H](N)C[C@H]2NC(=O)[C@@H](O)CCN)OC[C@]1(C)O (stereo partly drawn) [Example 97, 2′-(2-Amino-propanol)-1-(4-amino-2(S)-hydroxy-butyryl)-sisomicin]	< 1	1 to 16 (≈ 1.61 to 25.7 µM)
–	–	–	CN[C@@H]1[C@@H](O)[C@@H](O[C@@H]2[C@@H](O)[C@H](O[C@H]3OC(CN)=CC[C@H]3NC(=O)C(O)CN)[C@@H](N)C[C@H]2NC(=O)[C@@H](O)CCN)OC[C@]1(C)O (stereo partly drawn) [Example 89, 2′-(3-Amino-2-hydroxy-propionyl)-1-(4-amino-2(S)-hydroxy-butyryl)-sisomicin]	< 1	1 to 16 (≈ 1.57 to 25.2 µM)
–	–	–	CN[C@@H]1[C@@H](O)[C@@H](O[C@@H]2[C@@H](O)[C@H](O[C@H]3OC(CNCCCN)=CC[C@H]3N)[C@@H](N)C[C@H]2NC(=O)[C@H](O)CN)OC[C@]1(C)O [Example 11, 6′-(3-Amino-propyl)-1-(3-amino-2(R)-hydroxy-propionyl)-sisomicin]	< 1	1 to 16 (≈ 1.69 to 27 µM)
–	–	–	CN[C@@H]1[C@@H](O)[C@@H](O[C@@H]2[C@@H](O)[C@H](O[C@H]3OC(CNC[C@H]4C[C@H](N)C4)=CC[C@H]3N)[C@@H](N)C[C@H]2NC(=O)C2(O)CCNC2)OC[C@]1(C)O (stereo partly drawn) [Example 78, 6′-(Methyl-trans-3-amino-cyclobutyl)-1-(3-hydroxy-pyrrolidin-3-yl-acetyl)-sisomicin]	< 1	1 to 16 (≈ 1.55 to 24.9 µM)
–	–	–	CN[C@@H]1[C@@H](O)[C@@H](O[C@@H]2[C@@H](O)[C@H](O[C@H]3OC(CNCC4(N)CCC4)=CC[C@H]3N)[C@@H](N)C[C@H]2NC(=O)[C@@H](O)CN)OC[C@]1(C)O [Example 56, 6′-(Methyl-1-amino-cyclobutyl)-1-(3-amino-2(S)-hydroxy-propionyl)-sisomicin]	< 1	> 16
–	–	–	CN[C@@H]1[C@@H](O)[C@@H](O[C@@H]2[C@@H](O)[C@H](O[C@H]3OC(CN)=CC[C@H]3NC(=O)C(C)N)[C@@H](N)C[C@H]2NC(=O)[C@@H](O)CCN)OC[C@]1(C)O (stereo partly drawn) [Example 88, 2′-(2-Amino-propionyl)-1-(4-amino-2(S)-hydroxy-butyryl)-sisomicin]	1 to 16 (≈ 1.61 to 25.8 µM)	1 to 16 (≈ 1.61 to 25.8 µM)
–	–	–	CN[C@@H]1[C@@H](O)[C@@H](O[C@@H]2[C@@H](O)[C@H](O[C@H]3OC(CNC[C@@H]4C[C@H](N)CN4)=CC[C@H]3N)[C@@H](N)C[C@H]2NC(=O)[C@@H](O)CN)OC[C@]1(C)O [Example 65, 6′-(Methyl-4(S)-amino-pyrrolidin-2(S)-yl)-1-(3-amino-2(S)-hydroxy-propionyl)-sisomicin]	1 to 16 (≈ 1.58 to 25.3 µM)	1 to 16 (≈ 1.58 to 25.3 µM)
–	–	–	CN[C@@H]1[C@@H](O)[C@@H](O[C@@H]2[C@@H](O)[C@H](O[C@H]3OC(CNCCO)=CC[C@H]3NC(=N)N)[C@@H](N)C[C@H]2N)OC[C@]1(C)O [Example 106, 6′-(2-Hydroxy-ethyl)-2′-guanidinium-sisomicin]	< 1	1 to 16 (≈ 1.87 to 30 µM)
–	–	–	CN[C@@H]1[C@@H](O)[C@@H](O[C@@H]2[C@@H](O)[C@H](O[C@H]3OC(CNCC4CC4)=CC[C@H]3N)[C@@H](N)C[C@H]2NC(=O)[C@H](O)CN)OC[C@]1(C)O [Example 7, 6′-Methyl-cyclopropyl-1-(3-amino-2(R)-hydroxy-propionyl)-sisomicin]	< 1	1 to 16 (≈ 1.7 to 27.2 µM)
–	–	–	CN[C@@H]1[C@@H](O)[C@@H](O[C@@H]2[C@@H](O)[C@H](O[C@H]3OC(CNC[C@H]4C[C@H](N)C4)=CC[C@H]3N)[C@@H](N)C[C@H]2NC(=O)C(O)C2CNC2)OC[C@]1(C)O (stereo partly drawn) [Example 72, 6′-(Methyl-trans-3-amino-cyclobutyl)-1-(2-(azetidin-3-yl)-2-hydroxy-acetyl)-sisomicin]	1 to 16 (≈ 1.55 to 24.9 µM)	1 to 16 (≈ 1.55 to 24.9 µM)
1 to 16 (≈ 1.55 to 24.8 µM)	1	1 to 16 (≈ 1.55 to 24.8 µM)	CN[C@@H]1[C@@H](O)[C@@H](O[C@@H]2[C@@H](O)[C@H](O[C@H]3OC(CNCC4CCNCC4)=CC[C@H]3N)[C@@H](N)C[C@H]2NC(=O)[C@@H](O)CCN)OC[C@]1(C)O [Example 12, 6′-(Methyl-piperidin-4-yl)-1-(4-amino-2(S)-hydroxy-butyryl)-sisomicin]	–	–
–	–	–	CN[C@@H]1[C@@H](O)[C@@H](O[C@@H]2[C@@H](O)[C@H](O[C@H]3OC(CNCC4(O)CC(N)C4)=CC[C@H]3N)[C@@H](N)C[C@H]2NC(=O)C(O)C2CNC2)OC[C@]1(C)O (some centres unmarked) [Example 83, 6′-(Methyl-3-amino-1-hydroxy-cyclobutyl)-1-(2-(azetidin-3-yl)-2-hydroxy-acetyl)-sisomicin]	1 to 16 (≈ 1.52 to 24.3 µM)	> 16
–	–	–	CN[C@@H]1[C@@H](O)[C@@H](O[C@@H]2[C@@H](O)[C@H](O[C@H]3OC(CNCCC4(O)CNC4)=CC[C@H]3N)[C@@H](N)C[C@H]2NC(=O)[C@@H](O)CN)OC[C@]1(C)O [Example 70, 6′-(Ethyl-2-(3-hydroxy-azetidin-3-yl))-1-(3-amino-2(S)-hydroxy-propionyl)-sisomicin]	1 to 16 (≈ 1.58 to 25.2 µM)	> 16
–	–	–	CN[C@@H]1[C@@H](O)[C@@H](O[C@@H]2[C@@H](O)[C@H](O[C@H]3OC(CNCCCN)=CC[C@H]3N)[C@@H](N)C[C@H]2NS(=O)(=O)CCN)OC[C@]1(C)O [Example 26, 6′-(3-Amino-propyl)-1-(2-amino-ethylsulfonamide)-sisomicin]	1 to 16 (≈ 1.63 to 26.2 µM)	1 to 16 (≈ 1.63 to 26.2 µM)
–	–	–	CN[C@@H]1[C@@H](O)[C@@H](O[C@@H]2[C@@H](O)[C@H](O[C@H]3OC(CNCC4(N)CC4)=CC[C@H]3N)[C@@H](N)C[C@H]2NC(=O)[C@@H](O)CN)OC[C@]1(C)O [Example 67, 6′-(Methyl-1-Amino-cyclopropyl)-1-(3-amino-2(S)-hydroxy-propionyl)-sisomicin]	1 to 16 (≈ 1.66 to 26.5 µM)	1 to 16 (≈ 1.66 to 26.5 µM)
–	–	–	CN[C@@H]1[C@@H](O)[C@@H](O[C@@H]2[C@@H](O)[C@H](O[C@H]3OC(CNCC(O)CO)=CC[C@H]3N)[C@@H](N)C[C@H]2NC(=O)[C@H](O)CN)OC[C@]1(C)O (stereo partly drawn) [Example 10, 6′-(2-Hydroxy-propanol)-1-(3-amino-2(R)-hydroxy-propionyl)-sisomicin]	1 to 16 (≈ 1.64 to 26.3 µM)	1 to 16 (≈ 1.64 to 26.3 µM)
–	–	–	CN[C@@H]1[C@@H](O)[C@@H](O[C@@H]2[C@@H](O)[C@H](O[C@H]3OC(CNCCCN)=CC[C@H]3N)[C@@H](N)C[C@H]2NC(=O)C2(O)CCNC2)OC[C@]1(C)O (some centres unmarked) [Example 40]	1 to 16 (≈ 1.62 to 25.9 µM)	1 to 16 (≈ 1.62 to 25.9 µM)
–	–	–	CN[C@@H]1[C@@H](O)[C@@H](O[C@@H]2[C@@H](O)[C@H](O[C@H]3OC(CNC(=N)N)=CC[C@H]3NC(=N)N)[C@@H](N)C[C@H]2N)OC[C@]1(C)O [Example 105, 6′,2′-bis-Guanidinium-sisomicin]	> 16	> 16
–	–	–	CN[C@@H]1[C@@H](O)[C@@H](O[C@@H]2[C@@H](O)[C@H](O[C@H]3OC(CNCC4CC4)=CC[C@H]3N)[C@@H](N)C[C@H]2NC(=O)C2(O)CCNC2)OC[C@]1(C)O (some centres unmarked) [Example 41]	< 1	1 to 16 (≈ 1.63 to 26 µM)
–	–	–	CN[C@@H]1[C@@H](O)[C@@H](O[C@@H]2[C@@H](O)[C@H](O[C@H]3OC(CN)=CC[C@H]3NC[C@H]3C[C@H](N)C3)[C@@H](N)C[C@H]2NC(=O)[C@@H](O)CCN)OC[C@]1(C)O [Example 104, 2′-(Methyl-trans-3-amino-cyclobutyl)-1-(4-amino-2(S)-hydroxy-butyryl)-sisomicin]	< 1	1 to 16 (≈ 1.58 to 25.3 µM)
–	–	–	CN[C@@H]1[C@@H](O)[C@@H](O[C@@H]2[C@@H](O)[C@H](O[C@H]3OC(CN)=CC[C@H]3NCCO)[C@@H](N)C[C@H]2NC(=O)[C@@H](O)CCN)OC[C@]1(C)O [Example 98, 2′-(2-Hydroxy-ethyl)-1-(4-amino-2(S)-hydroxy-butyryl)-sisomicin]	1 to 16 (≈ 1.69 to 27 µM)	1 to 16 (≈ 1.69 to 27 µM)
–	–	–	CN[C@@H]1[C@@H](O)[C@@H](O[C@@H]2[C@@H](O)[C@H](O[C@H]3OC(CN)=CC[C@H]3NCCCN)[C@@H](N)C[C@H]2NC(=O)[C@@H](O)CCN)OC[C@]1(C)O [Example 91, 2′-(3-Amino-propyl)-1-(4-amino-2(S)-hydroxy-butyryl)-sisomicin]	< 1	< 1
–	–	–	CN[C@@H]1[C@@H](O)[C@@H](O[C@@H]2[C@@H](O)[C@H](O[C@H]3OC(CNCC(O)CO)=CC[C@H]3N)[C@@H](N)C[C@H]2NS(=O)(=O)CCN)OC[C@]1(C)O (some centres unmarked) [Example 27, 6′-(2-Hydroxy-propanol)-1-(2-amino-ethylsulfonamide)-sisomicin]	1 to 16 (≈ 1.59 to 25.4 µM)	> 16
–	–	–	CN[C@@H]1[C@@H](O)[C@@H](O[C@@H]2[C@@H](O)[C@H](O[C@H]3OC(CNCC4CC4)=CC[C@H]3N)[C@@H](N)C[C@H]2NC(=O)C(O)C2CNC2)OC[C@]1(C)O (some centres unmarked) [Example 71, 6′-Methylcyclopropyl-1-(2-(azetidin-3-yl)-2-hydroxy-acetyl)-sisomicin]	1 to 16 (≈ 1.63 to 26 µM)	> 16
